The source made the active and inactive calls. No cut-off for these calls is given here.
Experiments:
[1] = Inhibition of S-nitrosoglutathione reductase expressed in Escherichia coli after 3 mins by UV/Vis spectrophotometry
[2] = molecular target: CYP2C9 (Homo sapiens, UniProt P11712); test: Inhibition of CYP2C9 at 10 uM; assay type: ADME
[3] = molecular target: CYP3A4 (Homo sapiens, UniProt P08684); test: Inhibition of CYP3A4 at 10 uM; assay type: ADME
[4] = molecular target: T1, CYP1A2 (Homo sapiens, UniProt P05177); test: Inhibition of CYP1A2 at 10 uM; assay type: ADME
T1 sequence (P05177 whole entry): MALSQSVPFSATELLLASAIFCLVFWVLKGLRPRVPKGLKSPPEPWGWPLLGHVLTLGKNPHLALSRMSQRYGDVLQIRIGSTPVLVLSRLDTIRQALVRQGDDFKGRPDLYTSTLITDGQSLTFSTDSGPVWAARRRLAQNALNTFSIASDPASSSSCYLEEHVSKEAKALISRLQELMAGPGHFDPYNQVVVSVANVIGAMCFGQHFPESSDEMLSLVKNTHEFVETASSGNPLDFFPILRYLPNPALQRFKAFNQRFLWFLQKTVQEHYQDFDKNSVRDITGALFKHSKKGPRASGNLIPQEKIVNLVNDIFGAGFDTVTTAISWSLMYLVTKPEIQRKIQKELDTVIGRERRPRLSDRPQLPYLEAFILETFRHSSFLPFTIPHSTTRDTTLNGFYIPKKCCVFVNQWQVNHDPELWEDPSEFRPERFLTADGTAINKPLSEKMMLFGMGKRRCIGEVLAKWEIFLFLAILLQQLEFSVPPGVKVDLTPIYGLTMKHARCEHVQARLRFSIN

[5] = molecular target: CYP2C19 (Homo sapiens, UniProt P33261); test: Inhibition of CYP2C19 at 10 uM; assay type: ADME
[6] = molecular target: CYP2D6 (Homo sapiens, UniProt P10635); test: Inhibition of CYP2D6 at 10 uM; assay type: ADME
[7] = organism: Homo sapiens; test: Binding affinity to human recombinant delta2 opiate receptor by radioligand displacement assay
[8] = molecular target: Cytochrome P450 2C19 (Homo sapiens, UniProt P33261); test: Inhibition of CYP2C19; assay type: ADME
[9] = molecular target: Mu-type opioid receptor (Homo sapiens) (UniProt P35372); test: Binding affinity to human recombinant mu opioid receptor at 10 uM by radioligand displacement assay
Sequence of Mu-type opioid receptor (Homo sapiens) (P35372 whole entry): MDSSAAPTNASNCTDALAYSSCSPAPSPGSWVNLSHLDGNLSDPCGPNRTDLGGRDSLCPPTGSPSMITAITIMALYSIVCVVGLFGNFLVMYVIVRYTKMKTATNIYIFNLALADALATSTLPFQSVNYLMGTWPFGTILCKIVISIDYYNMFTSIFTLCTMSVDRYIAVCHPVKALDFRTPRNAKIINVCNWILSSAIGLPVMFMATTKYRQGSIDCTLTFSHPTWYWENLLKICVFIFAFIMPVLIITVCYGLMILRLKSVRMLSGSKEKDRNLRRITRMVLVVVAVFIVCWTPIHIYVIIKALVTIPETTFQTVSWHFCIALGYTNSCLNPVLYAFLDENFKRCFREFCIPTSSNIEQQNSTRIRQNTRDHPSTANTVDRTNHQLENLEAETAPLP

Sequence of CYP2C9 (P11712 whole entry): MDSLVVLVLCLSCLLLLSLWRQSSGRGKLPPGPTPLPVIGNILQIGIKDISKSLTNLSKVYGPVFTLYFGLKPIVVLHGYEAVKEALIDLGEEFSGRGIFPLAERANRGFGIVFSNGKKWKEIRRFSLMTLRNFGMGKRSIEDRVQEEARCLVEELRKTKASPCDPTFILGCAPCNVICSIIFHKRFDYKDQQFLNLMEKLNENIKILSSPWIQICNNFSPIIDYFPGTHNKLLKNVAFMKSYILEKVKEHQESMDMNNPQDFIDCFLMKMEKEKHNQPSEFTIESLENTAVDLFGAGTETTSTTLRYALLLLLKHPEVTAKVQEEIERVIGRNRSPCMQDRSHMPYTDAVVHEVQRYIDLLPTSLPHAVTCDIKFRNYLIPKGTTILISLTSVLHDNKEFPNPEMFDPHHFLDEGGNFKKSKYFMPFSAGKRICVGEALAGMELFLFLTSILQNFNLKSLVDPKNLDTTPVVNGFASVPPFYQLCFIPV
Sequence of CYP2D6 (P10635 whole entry): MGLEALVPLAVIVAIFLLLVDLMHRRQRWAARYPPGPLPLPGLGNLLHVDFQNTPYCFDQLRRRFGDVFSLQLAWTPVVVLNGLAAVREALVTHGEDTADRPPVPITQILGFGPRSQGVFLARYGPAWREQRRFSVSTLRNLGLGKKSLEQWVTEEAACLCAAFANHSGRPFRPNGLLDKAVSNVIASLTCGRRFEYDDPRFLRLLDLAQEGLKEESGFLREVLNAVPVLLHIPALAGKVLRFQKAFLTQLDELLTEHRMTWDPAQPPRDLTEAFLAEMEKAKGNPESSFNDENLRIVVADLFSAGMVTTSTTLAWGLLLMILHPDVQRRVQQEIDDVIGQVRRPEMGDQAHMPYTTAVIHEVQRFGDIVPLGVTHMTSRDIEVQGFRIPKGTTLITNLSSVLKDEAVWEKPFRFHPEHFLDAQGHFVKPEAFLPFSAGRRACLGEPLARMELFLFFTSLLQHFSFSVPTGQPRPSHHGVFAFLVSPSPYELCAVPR
Sequence of CYP2C19 (P33261 whole entry): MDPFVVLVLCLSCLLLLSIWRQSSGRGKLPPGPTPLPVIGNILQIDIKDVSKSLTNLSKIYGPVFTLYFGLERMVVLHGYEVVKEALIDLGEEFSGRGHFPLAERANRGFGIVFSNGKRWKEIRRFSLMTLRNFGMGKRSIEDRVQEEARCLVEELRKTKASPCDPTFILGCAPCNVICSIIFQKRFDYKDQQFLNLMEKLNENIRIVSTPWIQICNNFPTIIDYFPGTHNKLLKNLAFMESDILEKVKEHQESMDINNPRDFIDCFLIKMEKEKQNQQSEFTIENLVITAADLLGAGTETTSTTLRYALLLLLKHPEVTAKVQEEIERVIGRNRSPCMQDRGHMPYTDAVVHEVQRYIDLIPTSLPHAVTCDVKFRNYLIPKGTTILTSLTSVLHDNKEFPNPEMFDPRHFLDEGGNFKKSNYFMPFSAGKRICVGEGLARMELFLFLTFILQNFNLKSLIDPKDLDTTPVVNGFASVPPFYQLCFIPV
Sequence of CYP3A4 (P08684 whole entry): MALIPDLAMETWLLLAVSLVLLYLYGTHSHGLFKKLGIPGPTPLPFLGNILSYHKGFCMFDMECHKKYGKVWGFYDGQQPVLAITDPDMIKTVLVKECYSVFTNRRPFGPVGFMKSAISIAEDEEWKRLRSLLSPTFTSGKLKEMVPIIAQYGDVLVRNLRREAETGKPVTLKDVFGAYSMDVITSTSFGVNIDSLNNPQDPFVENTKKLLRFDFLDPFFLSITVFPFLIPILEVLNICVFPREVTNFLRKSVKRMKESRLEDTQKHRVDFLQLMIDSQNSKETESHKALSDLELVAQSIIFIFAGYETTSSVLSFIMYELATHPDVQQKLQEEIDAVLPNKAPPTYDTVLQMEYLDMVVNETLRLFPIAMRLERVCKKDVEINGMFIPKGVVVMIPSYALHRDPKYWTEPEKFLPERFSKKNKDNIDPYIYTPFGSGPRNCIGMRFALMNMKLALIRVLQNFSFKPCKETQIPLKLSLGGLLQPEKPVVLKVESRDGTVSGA
Sequence of Cytochrome P450 2C19 (P33261 whole entry): as the sequence (P33261 whole entry) above

| Structure (SMILES) | IC50 ([1]; read-out: IC50) [µM] | also measured |
| --- | --- | --- |
| Cc1cc(C(N)=O)ccc1-n1c(CCC(=O)O)ccc1-c1ccc(-c2cccnc2)cc1 | 23.9 | – |
| Cc1cc(C(N)=O)ccc1-n1c(CCC(=O)O)ccc1-c1ccc(-c2nnn[nH]2)cc1 | 1.75 | – |
| Cc1cc(C(N)=O)ccc1-n1c(CCC(=O)O)ccc1-c1ccc(-c2ccc(=O)[nH]c2)cc1 | 19 | – |
| Cc1cc(C(N)=O)ccc1-n1c(CCC(=O)O)ccc1-c1ccc(-n2ccnc2C)s1 | – | inhibition at 10 µM [2]: 15%; inhibition at 10 µM [3]: 27%; inhibition at 10 µM [4]: -8%; inhibition at 10 µM [5]: 25%; inhibition at 10 µM [6]: 10% |
| Cc1cc(C(N)=O)ccc1-n1c(CCC(=O)O)ccc1-c1ccc(-n2cccc2)cc1 | 10.2 | – |
| Cc1cc(C(N)=O)ccc1-n1c(CCC(=O)O)ccc1-c1ccc(N2CCCC2)cc1 | 11.8 | – |
| Cc1cc(C(N)=O)ccc1-n1c(CCC(=O)O)ccc1-c1ccc(-n2cccn2)cc1 | 4.74 | – |
| Cc1cc(C(N)=O)ccc1-n1c(CCC(=O)O)ccc1-c1cc(-n2ccnc2)cs1 | 0.026 | – |
| Cc1cc(C(N)=O)ccc1-n1c(CCC(=O)O)ccc1-c1cnc(-n2ccnc2)s1 | 1.57 | – |
| Cc1cc(C(N)=O)ccc1-n1c(CCC(=O)O)ccc1-c1ccc(-n2ccnc2C2CC2)cc1 | 6.96 | – |
| Cc1cc(C(N)=O)ccc1-n1c(CCC(=O)O)ccc1-c1ccc(N2CCOC2=O)cc1 | 53.5 | – |
| Cc1cc(C(N)=O)ccc1-n1c(CCC(=O)O)ccc1-c1csc(-n2ccnc2C)c1 | 0.048 | – |
| Cc1cc(C(N)=O)ccc1-n1c(CCC(=O)O)ccc1-c1cnc(-n2ccnc2)nc1 | 0.15 | – |
| Cc1cc(C(N)=O)ccc1-n1c(CCC(=O)O)ccc1-c1ccc(-n2ccnc2)cn1 | 0.36 | – |
| CCc1nccn1-c1ccc(-c2ccc(CCC(=O)O)n2-c2ccc(C(N)=O)cc2C)s1 | 0.048 | – |
| Cc1cc(C(N)=O)ccc1-n1c(CCC(=O)O)ccc1-c1ccc(-n2ccnc2C(F)(F)F)cc1 | – | IC50 [1]: Not Active |
| Cc1cc(C(N)=O)ccc1-n1c(CCC(=O)O)ccc1-c1ccc(-n2cnnc2)cc1 | 1.48 | – |
| Cc1cc(C(N)=O)ccc1-n1c(CCC(=O)O)ccc1-c1ccc(-n2ccnc2)cc1 [N6022] | 0.02 | Activity [7]: inactive; IC50 [8]: 0.77 µM |
| Cc1cc(C(N)=O)ccc1-n1c(CCC(=O)O)ccc1-c1ccc(-n2cnnn2)cc1 | 5.19 | – |
| Cc1cc(C(N)=O)ccc1-n1c(CCC(=O)O)ccc1-c1ccc(N2CCNCC2)cc1 | 43.9 | – |
| Cc1cc(C(N)=O)ccc1-n1c(CCC(=O)O)ccc1-c1ccc(-n2ccnc2CO)cc1 | 2.31 | – |

| Structure (SMILES) | IC50 ([1]; read-out: IC50) [µM] | also measured |
| --- | --- | --- |
| Cc1cc(C(N)=O)ccc1-n1c(CCC(=O)O)ccc1-c1ccc(-c2ccoc2)cc1 | 0.51 | – |
| Cc1cc(C(N)=O)ccc1-n1c(CCC(=O)O)ccc1-c1ccc(-n2ccnc2C)cc1 | 0.075 | inhibition at 10 µM [2]: 20%; inhibition at 10 µM [3]: 31%; inhibition at 10 µM [4]: 11%; inhibition at 10 µM [5]: 55%; inhibition at 10 µM [6]: 11% |
| Cc1cc(C(N)=O)ccc1-n1c(CCC(=O)O)ccc1-c1ccc(-c2ccsc2)cc1 | 29.3 | – |
| Cc1cc(C(N)=O)ccc1-n1c(CCC(=O)O)ccc1-c1ccc(-c2ccncc2)cc1 | 9.8 | – |
| Cc1cc(C(N)=O)ccc1-n1c(CCC(=O)O)ccc1-c1ccc(-c2cncs2)cc1 | 0.76 | – |
| Cc1cc(C(N)=O)ccc1-n1c(CCC(=O)O)ccc1-c1ccc(-c2cnn(C)c2)cc1 | 5.14 | – |
| Cc1cn(-c2ccc(-c3ccc(CCC(=O)O)n3-c3ccc(C(N)=O)cc3C)cc2)cn1 | 6.25 | – |
| Cc1cc(C(N)=O)ccc1-n1c(CCC(=O)O)ccc1-c1ccc(-n2ccnc2)nc1 | 2.3 | – |
| Cc1cc(C(N)=O)ccc1-n1c(CCC(=O)O)ccc1-c1ccc(-c2ccccc2)cc1 | 6.16 | – |
| CCc1nccn1-c1ccc(-c2ccc(CCC(=O)O)n2-c2ccc(C(N)=O)cc2C)cc1 | 0.13 | inhibition at 10 µM [2]: 15%; inhibition at 10 µM [3]: 27%; inhibition at 10 µM [4]: 6%; inhibition at 10 µM [5]: 25%; inhibition at 10 µM [6]: 20% |
| Cc1cc(C(N)=O)ccc1-n1c(CCC(=O)O)ccc1-c1ccc(-n2ccnc2)s1 | – | inhibition at 10 µM [2]: 92%; inhibition at 10 µM [3]: 91%; inhibition at 10 µM [4]: 77%; inhibition at 10 µM [5]: 83%; inhibition at 10 µM [6]: 96% |
| Cc1cc(C(N)=O)ccc1-n1c(CCC(=O)O)ccc1-c1ccc(-c2cn[nH]c2)cc1 | 2.66 | – |
| Cc1cc(C(N)=O)ccc1-n1c(CCC(=O)O)ccc1-c1ccc(-c2ccnn2C)cc1 | 0.68 | – |
| Cc1cc(C(N)=O)ccc1-n1c(CCC(=O)O)ccc1-c1cc(-n2ccnc2C)cs1 | – | inhibition at 10 µM [2]: 13%; inhibition at 10 µM [3]: 18%; inhibition [9]: 69%; inhibition at 10 µM [4]: -11%; inhibition at 10 µM [5]: 11%; inhibition at 10 µM [6]: 12% |
| Cc1cc(C(N)=O)ccc1-n1c(CCC(=O)O)ccc1-c1ccc(N2CCOCC2)cc1 | 8.17 | – |
| Cc1cc(C(N)=O)ccc1-n1c(CCC(=O)O)ccc1-c1ccc(-n2ccnn2)cc1 | 13.3 | – |
| Cc1cc(C(N)=O)ccc1-n1c(CCC(=O)O)ccc1-c1ccc(-c2ccco2)cc1 | 6.52 | – |
| Cc1cc(C(N)=O)ccc1-n1c(CCC(=O)O)ccc1-c1ccc(N2CCNC2=O)cc1 | 50.6 | – |
| Cc1cc(C(N)=O)ccc1-n1c(CCC(=O)O)ccc1-c1ccc(-n2ccnc2C(C)C)cc1 | – | IC50 [1]: Not Active |
| Cc1cc(C(N)=O)ccc1-n1c(CCC(=O)O)ccc1-c1ccc(-n2ccnc2)o1 | 0.9 | – |
| Cc1cc(C(N)=O)ccc1-n1c(CCC(=O)O)ccc1-c1ccc(N2CCCCC2)cc1 | 8.78 | – |

From ChEMBL document CHEMBL1833839, “Discovery of potent and novel S-nitrosoglutathione reductase inhibitors devoid of cytochrome P450 activities” (Bioorg Med Chem Lett, 2011)
